The source of these data is patent US20050203155A1, “Imidazole compounds and human cellular proteins casein kinase I alpha, delta and epsilon as targets for medical intervention against Hepatitis C Virus infections” (priority 2002, published 2005).

Data set [1] relates to HCV replicons. In words: Luciferase reporter assay of HCV replicons in the Huh-5-2 cell line. The class given is cell-based, Hepatitis C Virus. Conditions: for % activity (luciferase, replicon RNA levels): 3 days, Huh-5-2, percentage of DMSO controls. The source says:
(§1) The Huh-5-2 cell line carries the persistant bicistronic replicon I389luc-ubi-neo/NS3-3′/5.1 that expresses a firefly luciferase-ubiquitin-neomycin phosphotransferase fusion protein under the control of the HCV 5′ UTR and the NS3-5B HCV polyprotein that harbors the cell culture adaptive mutation of NK5.1. (J. Virol. 75:4614-4624, 2001) and is driven by the EMCV-IRES. Autonomously replicating HCV RNA replicons are detectable by Northern blot or via expression of the luciferase part of the fusion protein in a luciferase reporter assay. For luciferase reporter assays, Huh-5-2 cells were seeded at 2500 cells per well in 96 well plates in medium without G418. […] On day 3 after addition of compounds, Alamar Blue™ solution (Serotec), which contains a redox indicator, was added to the cells to measure cell proliferation and compound cytotoxicity. After incubation for 3-4 hours, fluorescence was monitored at the wavelengths of 560 nm and 590 nm with a Wallac 1420 multilabel counter. For the luciferase assay, the cells were subsequently washed twice with PBS without sodium hydrogen carbonate (Life Technologies GmbH, Karlsruhe), and luciferase activity was determined with the LucLite Plus Assay Kit (Packard Bioscience B.V.) according to the manufacturer's instructions in a Wallac 1450 Microbeta Luminescence counter.

The subject of data set [2] is HCV RNA. In words: Metabolic labelling of HCV RNA in HCV replicon cell line 5-15 in the presence of actinomycin D. Type of data set: cell-based, Hepatitis C Virus. To be noted: 50 μM, replicon cell line 5-15, actinomycin D, overnight [33P]-orthophosphate labelling. As to the method:
1×10^6 Huh7-5-15 replicon cells and Huh-pcDNA3 cells were seeded into 10 cm culture plates and grown as described. After 24 hours cells were washed with phosphate-free medium and incubated in phosphate-free medium supplemented with 10% phosphate-free calf serum. Actinomycin D at a final concentration of 5 μg/ml was added to the cells together with the tested compounds at final concentrations of 10 and 50 μM. After 30 minutes of incubation cells were supplemented with 200 μCi ^33P-orthophosphate per dish and incubated over night. After cell lysis, RNA isolation was performed using the RNeasy mini kit (QIAGEN) according to recommendations given by the manufacturer. Northern blot was carried out according to standard procedures and autoradiography of the membrane was performed.
(Replicon systems follow genome replication, usually without infectious particles.)

Data set [3] deals with Huh-5-2 replicon cells. As to the kind of experiment: Alamar Blue toxicity assay in Huh-5-2 replicon cells. Type of data set: cell-based, human. Conditions: for % of cell viability: 3 days, Huh-5-2, percentage of DMSO controls.
Excerpt: as §1
On the technique in general: Alamar Blue is a resazurin reagent that responds to reducing activity.

The subject of data set [4] is CKI isoforms α, δ and ε. As to the kind of experiment: In-vitro kinase assay, GST-NS5A phosphorylation by Mono Q Peak I fractions of Huh-7 cells. Conditions: CKI-enriched partially purified Mono Q fraction of Huh-7 cells, FIG. 6A. The class given is biochemical, human. As to the method:
Confluent 15 cm dishes of Huh-7 cells were lysed in 500 μl lysis buffer per dish containing 20 mM Tris (tris-(hydroxymethyl)-amino methane) pH 8.0, 10 mM NaF (sodium fluoride), 2 mM MgCl2 (Magnesium chloride), 1 mM DTT (dithiothreitol), 2 mM EGTA (ethylene glycol-bis(β-amino-ethyl ether)-N,N,N′,N′-tetraacetic acid), 1 mM PMSF (phenylmethylsulfonyl fluoride), 0.1% NP40 (Nonidet P-40), 10 μg/ml Aprotinin, 10 μg/ml Leupeptin, and 1 mM orthovanadate. Lysates were cleared by centrifugation (20 min, 13000 rpm, 4° C.) and filtered using a 0.45 μm syringe filter (Nalgene). This cleared material was further purified by a 1 ml Mono Q column (Amersham Biosciences) equilibrated with lysis buffer without additives. After washing the column, bound proteins were eluted with lysis buffer containing 1 M NaCl in a step gradient modus. Eluted proteins were collected in 1 ml fractions, systematically pooled, dialysed against 50 mM Tris pH 7.5, 10 mM NaF, 1 mM DTT, 0.01% Triton X-100 and stored at −80° C. Chromatography runs were performed on a AKTA explorer 10 system (Amersham Biosciences). Samples were subsequently assayed by in-vitro kinase assays and western blot analysis.
GST-NS5A immobilized to Glutathione Sepharose 4B beads (Amersham Biosciences) was washed twice with 500 μl kinase buffer (50 mM Tris pH 7.5, 10 mM MgCl2, 0.5 mM DTT). […]

Broadly, the IC50 is the concentration needed to halve the response being measured. Turning to `C[S+]([O-])c1ccc(-c2nc(-c3cccc(I)c3)c(-c3ccncc3)[nH]2)cc1` (centres unmarked) [Compound 39, 4-[5-(3-Iodo-phenyl)-2-(4-methanesulfinyl-phenyl)-3H-imidazole-4-yl]-pyridine], the “% activity (luciferase, replicon RNA levels)” value in data set [1] (1.25 μM) was 117%; in data set [1] (2.5 μM) it was 104%; in data set [1] (5 μM), 89%; in data set [1] (10 μM) it was 28%; in data set [1] (20 μM), 0%. Besides, the IC50 in data set [1] (Hepatitis C virus, 72 h, Huh-5-2, 3 days, read-out: IC50, replication of subgenomic HCV replicon RNA in the luciferase reporter assay) was found to be 9 µM. The “synthesis of HCV RNA” value in data set [2] is reported as “reduced”. The “% of cell viability” value in data set [3] (1.25 μM) worked out at 108%; in data set [3] (2.5 μM) it was 105%; in data set [3] (5 μM), 109%; in data set [3] (10 μM), 114%; in data set [3] (20 μM) it was 72%. Further, the Toxicity result in data set [3] (up to a concentration of 10 μM, Huh-5-2) was “low”. Further, the “inhibitory effect on NS5A-phosphorylating kinase activity present in the Peak I fractions” value in data set [4] is “potent inhibitor”.
